From patent US6525001B1, “Substituted pyrimidine and pyridine herbicides” (Mid-American Commercialization Corporation, priority 1997, dated 2003)

Assays:
Format in all cases: in vivo
[1] = test system: crabgrass (Digitaria spp.); assay: Test A pre-/postemergence; set-up: key: 0 is no effect; 10 is complete control; details: 0 to 10 scale
Description: (§1) Seeds of barnyardgrass (Echinochloa crus-galli), crabgrass (Digitaria spp.), morningglory (Ipomoea spp.), and velvetleaf (Abutilon theophrasti) were planted into a sandy loam soil and treated preemergence by soil drench with test chemicals formulated in a non-phytotoxic solvent mixture which includes a surfactant. At the same time, these crop and weed species were also treated postemergence sprayed to runoff, with test chemicals formulated in the same manner. Plants ranged in height from two to eighteen cm and were in the one to two leaf stage for the postemergence treatment. Treated plants and untreated controls were maintained in a greenhouse for approximately eleven days, after which all treated plants were compared to untreated controls and visually evaluated for injury. Plant response ratings, summarized in Table A, are based on a 0 to 10 scale where 0 is no effect and 10 is complete control. A dash (−) response means no test results.

[2] = test system: morningglory (Ipomoea spp.); assay: Test A pre-/postemergence; set-up: key: 0 is no effect; 10 is complete control; details: 0 to 10 scale
Description: as §1

[3] = test system: barnyardgrass (Echinochloa crus-galli); assay: Test A pre-/postemergence; set-up: key: 0 is no effect; 10 is complete control; details: 0 to 10 scale
Description: as §1

[4] = test system: velvetleaf (Abutilon theophrasti); assay: Test A pre-/postemergence; set-up: key: 0 is no effect; 10 is complete control; details: 0 to 10 scale
Description: as §1

[5] = test system: sandbur (Cenchrus echinatus); assay: Test E pre-/postemergence/post directed; set-up: key: 0 is no injury; 100 is complete control
Source text: (§2) Seeds, tubers, or plant parts of alexandergrass (Brachiaria plantaginea), annual bluegrass (Poa annua), arrowleaf sida (Sida rhombifolia), barnyardgrass (Echinochloa crus-galli), bermudagrass (Cynodon dactylon), citrus (Citrus sinensis), common chickweed (Stellaria media), common purslane (Portulaca oleracea), common ragweed (Ambrosia elatior), common groundsel (Senecio vulgaris), dallisgrass (Paspalum dilatatum), goosegrass (Eleusine indica), green foxtail (Setaria viridis), guineagrass (Panicum maximum), itchgrass (Rottboellia exaltata), johnson grass (Sorghum halepense), kochia (Kochia scoparia), large crabgrass (Digitaria sanguinalis), leafy spurge (Euphorbia esula), pitted morningglory (Ipomoea lacunosa), purple nutsedge (Cyperus rotundus), quackgrass (Agropyron repens), Russian thistle (Salsola kali), sandbur (Cenchrus echinatus), sourgrass (Trichachne insularis), Spanishneedles (Bidens bipinnata), sugarcane (Saccharum officinarum), surinam grass (Brachiaria decumbens) and tall mallow (Malva sylvestris) were planted into greenhouse pots of flats containing greenhouse planting medium. Plant species were grown grown in separate pots or individual compartments. Preemergence applications were made within one day of planting the seed or plant part. Postemergence applications were applied when the plants were in the two to four leaf stage (three to twenty cm).
(§3) Test chemicals were formulated in a non-phytotoxic solvent mixture which included a surfactant and applied preemergence to the soil surface, postemergence to the plants or as a post directed spray to plants and soil at the base of the target species. Untreated control plants and treated plants were placed in the greenhouse and visually evaluated for injury 13 to 21 days after herbicide application. Plant response ratings, summarized in Table E, are based on a 0 to 100 scale where 0 is no injury and 100 is complete control. A dash (−) response means no test result.

[6] = test system: purple nutsedge (Cyperus rotundus); assay: Test E pre-/postemergence/post directed; set-up: key: 0 is no injury; 100 is complete control
Source text: as §2, §3

soybean (Glycine max) = assay: Test C; set-up: key: 0 was no effect; 100 was complete control; details: PREEMERGENCE
[7] = test system: arrowleaf sida (Sida rhombifolia); assay: Test C; set-up: key: 0 was no effect; 100 was complete control; details: PREEMERGENCE
[8] = test system: ladysthumb smartweed (Polygonum persicaria); assay: Test C; details: PREEMERGENCE
[9] = test system: large crabgrass (Digitaria sanguinalis); assay: Test C; set-up: key: 0 was no effect; 100 was complete control; details: PREEMERGENCE
[10] = test system: fall panicum (Panicum dichotomiflorum); assay: Test C; details: PREEMERGENCE
[11] = test system: ivyleaf morningglory (Ipomoea hederacea); assay: Test C; details: PREEMERGENCE
[12] = test system: velvetleaf (Abutilon theophrasti); assay: Test C; set-up: key: 0 was no effect; 100 was complete control; details: PREEMERGENCE
[13] = test system: hairy beggarticks (Bidens pilosa); assay: Test C; set-up: key: 0 was no effect; 100 was complete control; details: PREEMERGENCE
[14] = test system: eastern black nightshade (Solanum ptycanthum); assay: Test C; details: PREEMERGENCE
[15] = test system: barnyardgrass (Echinochloa crus-galli); assay: Test C; set-up: key: 0 was no effect; 100 was complete control; details: PREEMERGENCE
[16] = test system: common ragweed (Ambrosia elatior); assay: Test C; set-up: key: 0 was no effect; 100 was complete control; details: PREEMERGENCE
[17] = test system: wild poinsettia (Euphorbia heterophylla); assay: Test C; set-up: key: 0 was no effect; 100 was complete control; details: PREEMERGENCE
[18] = PRE SOIL DRENCH, Rate 2000 g/ha
[19] = postemergence SPRAYED TO RUNOFF, Rate 1000 g/ha

## Cc1cnc(-n2ccc(C(F)(F)F)n2)nc1C(=O)c1ccc(C(F)(F)F)cc1 [Compound 65]
[1]; [18]
  Plant response rating, Crabgrass: 8
[1]; [19]
  Plant response rating, Crabgrass: 5
[2]; [18]
  Plant response rating, Morningglory: 4
[2]; [19]
  Plant response rating, Morningglory: 10
[3]; [18]
  Plant response rating, Barnyardgrass: 5
[3]; [19]
  Plant response rating, Barnyardgrass: 4
[4]; [18]
  Plant response rating, Velvetleaf: 4
[4]; [19]
  Plant response rating, Velvetleaf: 5

## Cc1cnc(-c2ccc(Cl)cc2)nc1Cn1ccc(C(F)(F)F)n1 [Compound 6]
[1]; [18]
  Plant response rating, Crabgrass: 9
[1]; [19]
  Plant response rating, Crabgrass: 9
[2]; [18]
  Plant response rating, Morningglory: 5
[2]; [19]
  Plant response rating, Morningglory: 6
[3]; [18]
  Plant response rating, Barnyardgrass: 8
[3]; [19]
  Plant response rating, Barnyardgrass: 8
[4]; [18]
  Plant response rating, Velvetleaf: 8
[4]; [19]
  Plant response rating, Velvetleaf: 9

## Cc1cnc(-c2ccc(C(F)(F)F)cc2)nc1C(=O)c1cccc(C(F)(F)F)c1 [Compound 73]
[1]; [18]
  Plant response rating, Crabgrass: 10
[1]; [19]
  Plant response rating, Crabgrass: 9
[2]; [18]
  Plant response rating, Morningglory: 9
[2]; [19]
  Plant response rating, Morningglory: 9
[3]; [18]
  Plant response rating, Barnyardgrass: 9
[3]; [19]
  Plant response rating, Barnyardgrass: 8
[4]; [18]
  Plant response rating, Velvetleaf: 9
[4]; [19]
  Plant response rating, Velvetleaf: 9

## Cc1cnc(-n2cnc(C(F)(F)F)c2)nc1Cc1cccc(C(F)(F)F)c1 [Compound 44]
[5]; POSTEMERGENCE, Rate 125 g/ha
  Plant response rating, Sandbur: 0
[5]; POSTEMERGENCE, Rate 250 g/ha
  Plant response rating, Sandbur: 0
[5]; PREEMERGENCE, Rate 32 g/ha
  Plant response rating, Sandbur: 0
[6]; POSTEMERGENCE, Rate 125 g/ha
  Plant response rating, Purple nutsedge: 0
[6]; POSTEMERGENCE, Rate 250 g/ha
  Plant response rating, Purple nutsedge: 0
[6]; PREEMERGENCE, Rate 32 g/ha
  Plant response rating, Purple nutsedge: 0
[6]; PREEMERGENCE, Rate 64 g/ha
  Plant response rating, Purple nutsedge: 0
[6]; PREEMERGENCE, Rate 125 g/ha
  Plant response rating, Purple nutsedge: 0
[6]; PREEMERGENCE, Rate 250 g/ha
  Plant response rating, Purple nutsedge: 0

## Cc1cnc(-c2ccc(C(F)(F)F)cc2)nc1Cc1cccc(C(F)(F)F)c1 [Example 1, 5-methyl-2-[4-(trifluoromethyl)phenyl]-4-[[3-(trifluoromethyl)phenyl]methyl]pyrimidine]
Soybean (Glycine max); Rate 35 g/ha
  Plant response rating, Soybean: 0
Soybean (Glycine max); Rate 70 g/ha
  Plant response rating, Soybean: 0
Soybean (Glycine max); Rate 140 g/ha
  Plant response rating, Soybean: 0
[7]; Rate 35 g/ha
  Plant response rating, Arrowleaf sida: 85
[7]; Rate 70 g/ha
  Plant response rating, Arrowleaf sida: 95
[7]; Rate 140 g/ha
  Plant response rating, Arrowleaf sida: 100
[8]; Rate 35 g/ha
  Plant response rating, Ladysthumb: 25
[8]; Rate 70 g/ha
  Plant response rating, Ladysthumb: 90
[8]; Rate 140 g/ha
  Plant response rating, Ladysthumb: 95
[9]; Rate 35 g/ha
  Plant response rating, Large crabgrass: 100
[9]; Rate 70 g/ha
  Plant response rating, Large crabgrass: 100
[9]; Rate 140 g/ha
  Plant response rating, Large crabgrass: 100
[10]; Rate 35 g/ha
  Plant response rating, Fall panicum: 90
[10]; Rate 70 g/ha
  Plant response rating, Fall panicum: 90
[10]; Rate 140 g/ha
  Plant response rating, Fall panicum: 95
[11]; Rate 35 g/ha
  Plant response rating, I. morningglory: 15
[11]; Rate 70 g/ha
  Plant response rating, I. morningglory: 15
[11]; Rate 140 g/ha
  Plant response rating, I. morningglory: 20
[6]; POSTEMERGENCE, Rate 250 g/ha
  Plant response rating, Purple nutsedge: 0
[6]; PREEMERGENCE, Rate 32 g/ha
  Plant response rating, Purple nutsedge: 0
[6]; PREEMERGENCE, Rate 64 g/ha
  Plant response rating, Purple nutsedge: 0
[6]; PREEMERGENCE, Rate 125 g/ha
  Plant response rating, Purple nutsedge: 0
[6]; PREEMERGENCE, Rate 250 g/ha
  Plant response rating, Purple nutsedge: 50
[12]; Rate 35 g/ha
  Plant response rating, Velvetleaf: 20
[12]; Rate 70 g/ha
  Plant response rating, Velvetleaf: 75
[12]; Rate 140 g/ha
  Plant response rating, Velvetleaf: 100
[13]; Rate 35 g/ha
  Plant response rating, H. beggarticks: 20
[13]; Rate 70 g/ha
  Plant response rating, H. beggarticks: 100
[13]; Rate 140 g/ha
  Plant response rating, H. beggarticks: 100
[14]; Rate 35 g/ha
  Plant response rating, E. blacknightsh: 90
[14]; Rate 70 g/ha
  Plant response rating, E. blacknightsh: 90
[14]; Rate 140 g/ha
  Plant response rating, E. blacknightsh: 95
[1]; [18]
  Plant response rating, Crabgrass: 10
[1]; [19]
  Plant response rating, Crabgrass: 9
[2]; [18]
  Plant response rating, Morningglory: 8
[2]; [19]
  Plant response rating, Morningglory: 9
[3]; [18]
  Plant response rating, Barnyardgrass: 10
[3]; [19]
  Plant response rating, Barnyardgrass: 9
[4]; [18]
  Plant response rating, Velvetleaf: 9
[4]; [19]
  Plant response rating, Velvetleaf: 9
[15]; Rate 35 g/ha
  Plant response rating, Barnyardgrass: 20
[15]; Rate 70 g/ha
  Plant response rating, Barnyardgrass: 75
[15]; Rate 140 g/ha
  Plant response rating, Barnyardgrass: 100
[16]; Rate 35 g/ha
  Plant response rating, Common ragweed: 80
[16]; Rate 70 g/ha
  Plant response rating, Common ragweed: 100
[16]; Rate 140 g/ha
  Plant response rating, Common ragweed: 100
[17]; Rate 35 g/ha
  Plant response rating, Wild poinsettia: 0
[17]; Rate 70 g/ha
  Plant response rating, Wild poinsettia: 10
[17]; Rate 140 g/ha
  Plant response rating, Wild poinsettia: 50

## Cc1cnc(-c2ccc(C(F)(F)F)cc2)nc1C(=O)c1ccc(C(F)(F)F)cc1 [Compound 74]
[1]; [18]
  Plant response rating, Crabgrass: 7
[1]; [19]
  Plant response rating, Crabgrass: 8
[2]; [18]
  Plant response rating, Morningglory: 1
[2]; [19]
  Plant response rating, Morningglory: 10
[3]; [18]
  Plant response rating, Barnyardgrass: 1
[3]; [19]
  Plant response rating, Barnyardgrass: 5
[4]; [18]
  Plant response rating, Velvetleaf: 4
[4]; [19]
  Plant response rating, Velvetleaf: 5

## Cc1cnc(-c2ccc(C(F)(F)F)cc2)nc1Cn1cc(I)cn1 [Compound 12]
[1]; [18]
  Plant response rating, Crabgrass: 9
[1]; [19]
  Plant response rating, Crabgrass: 8
[2]; [18]
  Plant response rating, Morningglory: 3
[2]; [19]
  Plant response rating, Morningglory: 2
[3]; [18]
  Plant response rating, Barnyardgrass: 7
[3]; [19]
  Plant response rating, Barnyardgrass: 5
[4]; [18]
  Plant response rating, Velvetleaf: 5
[4]; [19]
  Plant response rating, Velvetleaf: 6

## Cc1cnc(-c2ccc(C(F)(F)F)cc2)nc1Cn1nc(C(F)(F)F)cc1C [Compound 13]
[1]; [18]
  Plant response rating, Crabgrass: 10
[1]; [19]
  Plant response rating, Crabgrass: 9
[2]; [18]
  Plant response rating, Morningglory: 3
[2]; [19]
  Plant response rating, Morningglory: 2
[3]; [18]
  Plant response rating, Barnyardgrass: 9
[3]; [19]
  Plant response rating, Barnyardgrass: 6
[4]; [18]
  Plant response rating, Velvetleaf: 9
[4]; [19]
  Plant response rating, Velvetleaf: 8
